Assays:
NIH3T3 [1] = experiment: Concentration of compound inhibiting Pgp-mediated DNM transport in NIH3T3 cells transfected with human MDR1 protein; assay type: functional, cell-based
NIH3T3 [2] = tested on: NIH3T3
NIH3T3 [3] = tested on: NIH3T3; remark: listed apart in the source
NIH3T3 [4] = tested on: NIH3T3; remark: listed apart in the source
NIH3T3 [5] = tested on: NIH3T3; remark: listed apart in the source
NIH3T3 [6] = tested on: NIH3T3; remark: listed apart in the source
NIH3T3 [7] = tested on: NIH3T3; remark: listed apart in the source

| Structure (SMILES) | Ki (NIH3T3 [1]) | Reversal ability (NIH3T3 [2]) | Reversal ability (NIH3T3 [3]) | Reversal ability (NIH3T3 [4]) | Reversal ability (NIH3T3 [5]) | Reversal ability (NIH3T3 [6]) | Reversal ability (NIH3T3 [7]) |
| --- | --- | --- | --- | --- | --- | --- | --- |
| CC(=O)OC[C@]12[C@H](OC(C)=O)C(=O)[C@@H]3[C@@H](OC(C)=O)[C@]1(OC3(C)C)[C@H](C)C[C@H](OC(C)=O)[C@@H]2OC(C)=O | 9.83 µM | – | – | – | – | – | – |
| CC(=O)OC[C@]12[C@H](OC(=O)c3ccccc3)C(=O)[C@@H]3[C@@H](O)[C@]1(OC3(C)C)[C@@](C)(O)C[C@H](OC(C)=O)[C@@H]2OC(=O)c1ccccc1 | 3.97 µM | – | – | – | – | – | – |
| CC(=O)OC[C@]12[C@H](OC(=O)c3ccccc3)C(=O)[C@@H]3[C@@H](OC(C)=O)[C@]1(OC3(C)C)[C@H](C)C[C@H](OC(C)=O)[C@@H]2O | 18.4 µM | – | – | – | – | – | – |
| CC(=O)OC[C@]12[C@H](OC(C)=O)C(=O)[C@@H]3[C@@H](OC(C)=O)[C@]1(OC3(C)C)[C@@](C)(O)[C@@H](OC(C)=O)[C@H](OC(C)=O)[C@@H]2OC(=O)c1ccccc1 | 6.52 µM | – | – | – | – | – | – |
| CC(=O)OC[C@]12[C@@H](OC(=O)c3ccccc3)[C@@H](OC(=O)c3ccccc3)[C@@H]3[C@@H](OC(C)=O)[C@]1(OC3(C)C)[C@@](C)(O)C[C@H](OC(C)=O)[C@@H]2OC(C)=O | 1.74 µM | 102.17 | 6.23 | 4.26 | 11.13 | 233.6 | 10.78 |
| CC(=O)OC[C@]12[C@@H](OC(=O)c3ccccc3)[C@@H](OC(=O)c3ccccc3)[C@@H]3[C@@H](OC(C)=O)[C@]1(OC3(C)C)[C@H](C)C[C@H](OC(C)=O)[C@@H]2OC(C)=O | 1.71 µM | – | – | – | – | – | – |
| CC(=O)OC[C@]12[C@@H](OC(=O)c3ccccc3)C[C@@H]3[C@@H](OC(C)=O)[C@]1(OC3(C)C)[C@H](C)C[C@H](OC(C)=O)[C@@H]2OC(C)=O | 2.36 µM | – | – | – | – | – | – |
| CC(=O)OC[C@]12[C@H](OC(=O)c3ccccc3)C(=O)[C@@H]3[C@@H](OC(C)=O)[C@]1(OC3(C)C)[C@@](C)(O)C[C@H](OC(=O)c1ccccc1)[C@@H]2OC(=O)c1ccccc1 | 1.03 µM | 8.09 | 7.31 | 9.93 | 16.64 | 33.1 | 15.41 |
| CC(=O)OC[C@]12[C@H](OC(C)=O)C(=O)[C@@H]3[C@@H](OC(C)=O)[C@]1(OC3(C)C)[C@H](C)C[C@H](OC(C)=O)[C@@H]2OC(=O)c1ccccc1 | 5.74 µM | – | – | – | – | – | – |
| CC(=O)O[C@H]1C[C@](C)(O)[C@]23OC(C)(C)[C@H]([C@H](OC(=O)c4ccccc4)[C@H](OC(=O)c4ccccc4)[C@]2(CO)[C@H]1OC(C)=O)[C@H]3OC(C)=O | 7.04 µM | – | – | – | – | – | – |
| CC(=O)O[C@@H]1[C@H]2[C@H](O)[C@H](OC(=O)c3ccccc3)[C@]3(C)[C@@H](OC(=O)c4ccccc4)[C@@H](OC(=O)c4ccccc4)C[C@](C)(O)[C@@]13OC2(C)C | 1.21 µM | 41.23 | 5.38 | 6.32 | 15.86 | 57.32 | 11.13 |
| CC(=O)OC[C@]12[C@H](OC(=O)c3ccccc3)C(=O)[C@@H]3[C@@H](OC(C)=O)[C@]1(OC3(C)C)[C@H](C)C[C@H](OC(C)=O)[C@@H]2OC(=O)c1ccccc1 | 1.63 µM | 213.64 | 5.72 | 4.21 | 11.75 | 233.37 | 6.21 |
| CC(=O)OC[C@]12[C@@H](OC(=O)c3ccccc3)C[C@@H]3[C@@H](OC(C)=O)[C@]1(OC3(C)C)[C@@](C)(O)C[C@H](OC(C)=O)[C@@H]2OC(C)=O | 4.39 µM | – | – | – | – | – | – |
| CC(=O)OC[C@]12[C@H](OC(=O)c3ccccc3)C(=O)[C@@H]3[C@@H](OC(C)=O)[C@]1(OC3(C)C)[C@H](C)C[C@H](OC(C)=O)[C@@H]2OC(C)=O | 2.54 µM | – | – | – | – | – | – |
| CC(=O)OC[C@]12[C@H](OC(=O)c3ccccc3)C(=O)[C@@H]3[C@@H](OC(C)=O)[C@]1(OC3(C)C)[C@@](C)(O)C[C@H](OC(C)=O)[C@@H]2OC(=O)c1ccccc1 | 3.01 µM | – | – | – | – | – | – |
| CC(=O)O[C@H]1C[C@](C)(O)[C@]23OC(C)(C)[C@H]([C@H](OC(=O)c4ccccc4)[C@H](OC(=O)c4ccccc4)[C@]2(C)[C@H]1OC(=O)c1ccccc1)[C@H]3OC(C)=O | 0.913 µM | 87.04 | 16.55 | 8.26 | 12.72 | 90.39 | 9.55 |
| COc1ccc(CCN(C)CCCC(C#N)(c2ccc(OC)c(OC)c2)C(C)C)cc1OC (configuration not stated) | – | 13.18 | 6.21 | 6.12 | 10.2 | 18.76 | 9.55 |
